Test results published in ChEMBL document CHEMBL1800060, “Enhancement of transcriptional activity of mutant p53 tumor suppressor protein through stabilization of tetramer formation by calix[6]arene derivatives” (Bioorg Med Chem Lett, 2010).
The source made the active and inactive calls. No cut-off for these calls is given here.

How the values were obtained:
[1] = test system: Cellular tumor antigen p53 (Homo sapiens), P04637 [R337H]; experiment: Enhancement of transcriptional activity of EGFP tagged p53 tetramerization domain-Arg337His mutant peptide in NCI-H1299 cells transfected with p53RE-mCherry(NLS) reporter plasmid assessed as increase in fluorescence signal at 20 uM after 11 hrs by fluorescence assay relative to untreated control; type: cell-based
[2] = molecular target: Cellular tumor antigen p53 (Homo sapiens) (UniProt P04637); experiment: Enhancement of transcriptional activity of wild type p53 in NCI-H1299 cells transfectedp53RE-mCherry(NLS) reporter plasmid assessed as increase in fluorescence signal at 20 uM after 11 hrs by fluorescence assay; type: cell-based
[3] = test system: Cellular tumor antigen p53 (Homo sapiens), P04637 [R337H]; experiment: Enhancement of transcriptional activity of EGFP tagged p53 tetramerization domain-Arg337His mutant peptide in NCI-H1299 cells transfected with p53RE-mCherry(NLS) reporter plasmid assessed as increase in fluorescence signal at 20 uM after 11 hrs by fluorescence assay; type: cell-based
[4] = test system: Cellular tumor antigen p53 (Homo sapiens), P04637 [R337H]; experiment: Thermal stabilization of p53 tetramerization domain-Arg337His mutant peptide assessed as change in transition temperature at 10 uM by CD spectroscopy
[5] = test system: Cellular tumor antigen p53 (Homo sapiens), P04637 [R337H]; experiment: Thermal stabilization of p53 tetramerization domain-Arg337His mutant peptide assessed as change in transition temperature at 40 uM by CD spectroscopy
[6] = test system: Cellular tumor antigen p53 (Homo sapiens), P04637 [R273H]; experiment: Enhancement of transcriptional activity of p53 DNA binding domain Arg273His mutant in NCI-H1299 cells transfected p53RE-mCherry(NLS) reporter plasmid assessed as increase in fluorescence signal at 20 uM after 11 hrs by fluorescence assay; type: cell-based

SMILES | Activity [1] [%] | Activity [2] | Activity [3] | deltaT [4] [°C] | deltaT [5] [°C] | Activity [6]
COc1c2cc(Cn3ccnc3)cc1Cc1cc(Cn3ccnc3)cc(c1OC)Cc1cc(Cn3ccnc3)cc(c1OC)Cc1cc(Cn3ccnc3)cc(c1OC)Cc1cc(Cn3ccnc3)cc(c1OC)Cc1cc(Cn3ccnc3)cc(c1OC)C2 | 130 | Active | Active | 2.3 | 4.1 | inactive
N=C(N)NCc1cc2c3c(c1)Cc1cc(CNC(=N)N)cc4c1OCCOCCOc1c(cc(CNC(=N)N)cc1Cc1cc(CNC(=N)N)cc(c1OCCOCCO3)C2)C4 | – | – | inactive | 0.3 | -0.3 | –
COc1c2cc(Cn3cccn3)cc1Cc1cc(Cn3cccn3)cc(c1OC)Cc1cc(Cn3cccn3)cc(c1OC)Cc1cc(Cn3cccn3)cc(c1OC)Cc1cc(Cn3cccn3)cc(c1OC)Cc1cc(Cn3cccn3)cc(c1OC)C2 | – | – | – | 0 | – | –
